Calls of active or inactive are those of the source. The calls are words filed in the database; no cut-off is given here.
Tests used:
[1] = test system: RWPE-1; assay: Potentiation of 2 nM docetaxel-induced cytotoxicity against human RWPE1 cells assessed as decrease in cell viability at 50 nM after 72 hrs by trypan blue exclusion assay; type: cell-based; conditions: rwpe-1, 72 h, 0.05 µM
[2] = test system: PC-3; assay: Cytotoxicity against human PC3 cells assessed as decrease in cell viability after 72 hrs by trypan blue exclusion assay; type: functional, cell-based
[3] = test system: PC-3; assay: Potentiation of 2 nM docetaxel-induced apoptosis in human PC3 cells at 50 nM after 72 hrs by propidium iodide staining based fluorescence microscopy (reference value: 1.9 +/- 0.8%); type: functional
[4] = test system: LNCaP; assay: Induction of apoptosis in human LNCAP cells assessed as morphological changes by propidium iodide staining based fluorescence microscopy; type: functional, cell-based
[5] = test system: PC-3; assay: Potentiation of 2 nM docetaxel-induced cytotoxicity against 3D culture of human PC3 cells assessed as size of tissue like structure at 50 nM administered once every alternative day for 10 days measured on post last dose by matrigel based microscopic method relative to control; type: functional
[6] = target: Mitogen-activated protein kinase 3 (Homo sapiens) (UniProt P27361); assay: Potentiation of 2 nM docetaxel-induced inhibition of Erk1 phosphorylation in human PC3 cells at 50 nM after 24 hrs by Western blot method relative to control; type: cell-based
Sequence of Mitogen-activated protein kinase 3 (Homo sapiens) (P27361 whole entry): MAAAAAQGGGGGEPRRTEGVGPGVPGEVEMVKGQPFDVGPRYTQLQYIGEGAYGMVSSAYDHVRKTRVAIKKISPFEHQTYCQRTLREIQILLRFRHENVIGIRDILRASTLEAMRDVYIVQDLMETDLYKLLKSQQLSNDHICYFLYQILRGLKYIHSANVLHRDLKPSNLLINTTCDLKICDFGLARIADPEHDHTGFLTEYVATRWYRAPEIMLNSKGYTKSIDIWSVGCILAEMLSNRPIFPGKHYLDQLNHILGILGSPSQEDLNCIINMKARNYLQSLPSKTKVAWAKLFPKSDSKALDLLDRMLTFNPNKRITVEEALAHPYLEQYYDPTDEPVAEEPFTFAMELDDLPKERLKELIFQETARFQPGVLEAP

[7] = target: Mitogen-activated protein kinase 1 (Homo sapiens) (UniProt P28482); assay: Inhibition of Erk2 phosphorylation in human PC3 cells at 50 nM after 24 hrs by Western blot method relative to control; type: cell-based
Sequence of Mitogen-activated protein kinase 1 (Homo sapiens) (P28482 whole entry): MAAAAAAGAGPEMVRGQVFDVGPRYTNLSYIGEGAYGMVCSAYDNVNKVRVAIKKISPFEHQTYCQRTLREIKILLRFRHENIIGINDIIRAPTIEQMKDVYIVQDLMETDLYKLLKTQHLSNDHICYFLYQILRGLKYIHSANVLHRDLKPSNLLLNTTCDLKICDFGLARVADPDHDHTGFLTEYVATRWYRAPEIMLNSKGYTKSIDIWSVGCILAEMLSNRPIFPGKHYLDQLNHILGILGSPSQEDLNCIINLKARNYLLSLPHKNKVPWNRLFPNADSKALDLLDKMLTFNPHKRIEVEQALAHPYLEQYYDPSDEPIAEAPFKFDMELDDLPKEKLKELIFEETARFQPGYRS

[8] = test system: RWPE-1; assay: Potentiation of 3 nM docetaxel-induced cytotoxicity against human RWPE1 cells assessed as decrease in cell viability at 50 nM after 72 hrs by trypan blue exclusion assay; type: cell-based; conditions: rwpe-1, 72 h, 0.05 µM
[9] = test system: PC-3; assay: Potentiation of 2 nM docetaxel-induced apoptosis in human PC3 cells assessed as Bcl2 level at 50 nM after 24 hrs by Western blot method relative to control; type: functional
[10] = target: Mitogen-activated protein kinase 3 (Homo sapiens) (UniProt P27361); assay: Inhibition of Erk1 phosphorylation in human PC3 cells at 50 nM after 24 hrs by Western blot method relative to control; type: cell-based
[11] = Drug uptake in CD2F1 mouse plasma at 26.3 mg/kg administered for 1 min via intravenous injection measured 60 mins post dose; type: ADME, organism-based
[12] = target: Mitogen-activated protein kinase 1 (Homo sapiens) (UniProt P28482); assay: Potentiation of 2 nM docetaxel-induced inhibition of Erk2 phosphorylation in human PC3 cells at 50 nM after 24 hrs by Western blot method relative to control; type: cell-based
[13] = test system: LNCaP; assay: Cytotoxicity against human LNCAP cells assessed as decrease in cell viability after 72 hrs by trypan blue exclusion assay; type: functional, cell-based
[14] = test system: PC-3; assay: Cytotoxicity against 3D culture of human PC3 cells assessed as size of tissue like structure at 50 nM administered once every alternative day for 10 days measured on post last dose by matrigel based microscopic method relative to control; type: functional
[15] = Selectivity ratio for potentiation of 2 nM docetaxel-induced cytotoxicity against human PC3 cells to potentiation of 2 nM docetaxel-induced cytotoxicity against human RWPE1 cells
[16] = target: RAC-alpha serine/threonine-protein kinase (Homo sapiens) (UniProt P31749); assay: Potentiation of 2 nM docetaxel-induced inhibition of Akt phosphorylation in human PC3 cells at 50 nM after 24 hrs by Western blot method relative to control; type: cell-based
Sequence of RAC-alpha serine/threonine-protein kinase (Homo sapiens) (P31749 whole entry): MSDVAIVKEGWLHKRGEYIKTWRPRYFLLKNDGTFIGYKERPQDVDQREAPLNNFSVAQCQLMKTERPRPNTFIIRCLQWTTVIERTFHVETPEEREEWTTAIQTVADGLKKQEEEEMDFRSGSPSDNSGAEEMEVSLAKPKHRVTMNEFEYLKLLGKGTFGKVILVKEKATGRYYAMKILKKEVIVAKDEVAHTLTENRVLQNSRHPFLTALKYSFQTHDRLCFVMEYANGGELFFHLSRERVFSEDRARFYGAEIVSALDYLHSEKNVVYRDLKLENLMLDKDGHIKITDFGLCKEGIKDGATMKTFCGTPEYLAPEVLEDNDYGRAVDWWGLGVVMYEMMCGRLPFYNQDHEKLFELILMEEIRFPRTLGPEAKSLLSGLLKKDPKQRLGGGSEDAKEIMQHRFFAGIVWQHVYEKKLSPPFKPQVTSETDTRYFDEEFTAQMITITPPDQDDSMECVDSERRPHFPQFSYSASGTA

[17] = test system: RWPE-1; assay: Cytotoxicity against human RWPE1 cells at >=100 nM after 72 hrs by tryphan blue exclusion assay; type: cell-based; conditions: rwpe-1, 72 h
[18] = target: RAC-alpha serine/threonine-protein kinase (Homo sapiens) (UniProt P31749); assay: Inhibition of Akt phosphorylation in human PC3 cells at 50 nM after 24 hrs by Western blot method relative to control; type: cell-based
[19] = test system: PC-3; assay: Induction of apoptosis in human PC3 cells assessed as morphological changes by propidium iodide staining based fluorescence microscopy; type: functional, cell-based
[20] = test system: PC-3; assay: Potentiation of 2 nM docetaxel-induced cytotoxicity against human PC3 cells assessed as cell viability at 50 nM after 72 hrs by trypan blue exclusion assay relative to control; type: functional
[21] = test system: PC-3; assay: Induction of apoptosis in human PC3 cells at 50 nM after 72 hrs by propidium iodide staining based fluorescence microscopy (reference value: 1.9 +/- 0.8%); type: functional
[22] = test system: PC-3; assay: Induction of apoptosis in human PC3 cells assessed as Bcl2 level at 50 nM after 24 hrs by Western blot method relative to control; type: functional
[23] = test system: PC-3; assay: Cytotoxicity against human PC3 cells assessed as cell viability at 50 nM after 72 hrs by trypan blue exclusion assay relative to control; type: functional; conditions: PC-3, 72 h, read-out: Activity
[24] = test system: PC-3; assay: Potentiation of 3 nM docetaxel-induced cytotoxicity against human PC3 cells assessed as decrease in cell viability at 50 nM after 72 hrs by trypan blue exclusion assay; type: functional, cell-based
[25] = Drug uptake in patient plasma at 20 mg/m2, iv administered for 1 hr as infusion measured 72 hrs post dose; type: ADME, organism-based; conditions: human
[26] = test system: PC-3; assay: Cytotoxicity against 3D cultures of human PC3 cells assessed as size of tissue-like structure at 2 nM administered once every alternative day for 10 days measured on post last dose by matrigel based microscopic method relative to control; type: functional
[27] = test system: Plasma; assay: Drug uptake in cancer patient plasma at 35 mg/m2, iv administered once every week via infusion measured on day 8 by HPLC-TMS; type: ADME, organism-based; conditions: human, in vivo
[28] = target: Mitogen-activated protein kinase 3 (Homo sapiens) (UniProt P27361); assay: Inhibition of Erk1 phosphorylation in human PC3 cells at 2 nM after 24 hrs by Western blot method relative to control; type: cell-based
[29] = target: RAC-alpha serine/threonine-protein kinase (Homo sapiens) (UniProt P31749); assay: Inhibition of Akt phosphorylation in human PC3 cells at 2 nM after 24 hrs by Western blot method relative to control; type: cell-based
[30] = test system: RWPE-1; assay: Cytotoxicity against human RWPE1 cells at 5 to 10 nM after 72 hrs by trypan blue exclusion assay; type: cell-based; conditions: rwpe-1, 72 h, 0.01 µM
[31] = test system: PC-3; assay: Cytotoxicity against human PC3 cells; type: functional, cell-based
[32] = test system: PC-3; assay: Induction of apoptosis in human PC3 cells at 2 nM after 72 hrs by propidium iodide staining based fluorescence microscopy (reference value: 1.9 +/- 0.8%); type: functional
[33] = test system: PC-3; assay: Cytotoxicity against human PC3 cells assessed as cell viability at 2 nM after 72 hrs by trypan blue exclusion assay relative to control; type: functional; conditions: PC-3, 72 h, read-out: Activity
[34] = test system: PC-3; assay: Induction of apoptosis in human PC3 cells assessed as Bcl2 level at 2 nM after 24 hrs by Western blot method relative to control; type: functional
[35] = target: Mitogen-activated protein kinase 1 (Homo sapiens) (UniProt P28482); assay: Inhibition of Erk2 phosphorylation in human PC3 cells at 2 nM after 24 hrs by Western blot method relative to control; type: cell-based

## C[C@H]1CCC/C=C/[C@@H]2C[C@H](O)C[C@H]2[C@H](O)/C=C/C(=O)O1 [BREFELDIN A]
[1]
  Activity: Toxic
[2]
  Activity: Dose-dependent effect
[3]
  Activity: 51.2%
[4]
  Activity: Dose-dependent effect
[5]
  Activity: 38.8%
[6]
  fold change (FC): 0.93
[7]
  fold change (FC): 0.97
[8]
  Activity: Toxic
[9]
  fold change (FC): 0.32
[10]
  fold change (FC): 0.99
[11]
  concentration at 1 h: 700 nM
[12]
  fold change (FC): 0.96
[13]
  Activity: Dose-dependent effect
[14]
  Activity: 79.3%
[15]
  Selectivity ratio: 4
[16]
  fold change (FC): 0.97
[17]
  Activity: Toxic
[18]
  fold change (FC): 0.99
[19]
  Activity: Dose-dependent effect
[20]
  Activity: 48.4%
[21]
  Activity: 18%
[22]
  fold change (FC): 0.99
[23]
  viability at 0.05 µM: 83.4%
[24]
  Activity: Active

## CC(=O)O[C@@]12CO[C@@H]1C[C@H](O)[C@@]1(C)C(=O)[C@H](O)C3=C(C)[C@@H](OC(=O)[C@H](O)[C@@H](NC(=O)OC(C)(C)C)c4ccccc4)C[C@@](O)([C@@H](OC(=O)c4ccccc4)[C@H]21)C3(C)C [DOCETAXEL ANHYDROUS]
[1]
  Activity: Toxic
[2]
  Activity: Dose-dependent effect
[2]; PC-3, 72 h
  IC50: 8 nM
[25]
  concentration at 72 h: 2.8 nM
[26]
  Activity: 83.1%
[27]
  concentration: 1.79 nM
[28]
  fold change (FC): 0.95
[4]
  Activity: Dose-dependent effect
[29]
  fold change (FC): 1.01
[30]
  Activity: Toxic
[31]
  IC50: 5 to 24 nM
[32]
  Activity: 14.5%
[13]
  Activity: Dose-dependent effect
[33]
  viability at 0.002 µM: 86.7%
[34]
  fold change (FC): 0.71
[19]
  Activity: Dose-dependent effect
[35]
  fold change (FC): 0.96
[24]
  Activity: Active
